Experimental data reported in publication PMC8808168, “Enzymatic and structural characterization of HAD5, an essential phosphomannomutase of malaria-causing parasites” (The Journal of Biological Chemistry, 2021).

Tests used:
HAD5 (PfHAD5) = target: T1, HAD5 (PfHAD5) (Plasmodium falciparum, UniProt Q8IJM5); assay: linked PMM assay, activation; type: biochemical; conditions: 12.5 μM G-1,6-P, 1 mM mannose 6-phosphate, pH 7.5, room temperature; activator
T1 construct: gene PF3D7_1017400; pET28a, N-terminal His-tag cut with thrombin; E. coli BL21 Gold (DE3); size-exclusion purified
T1 sequence (Q8IJM5 1-244): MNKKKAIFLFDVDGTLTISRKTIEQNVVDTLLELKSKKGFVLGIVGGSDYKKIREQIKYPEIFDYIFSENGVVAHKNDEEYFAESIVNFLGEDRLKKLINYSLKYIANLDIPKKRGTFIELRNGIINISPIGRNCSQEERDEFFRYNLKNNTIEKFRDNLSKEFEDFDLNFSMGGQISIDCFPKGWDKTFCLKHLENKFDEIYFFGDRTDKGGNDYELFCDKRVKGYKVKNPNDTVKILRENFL

HsPMM1 = target: T2, HsPMM1 (Homo sapiens, UniProt Q92871); assay: coupled PGM assay (G6PDH, NADPH at […] nm); type: biochemical; conditions: 1 mM glucose 1-phosphate, 10 μM G-1,6-P, 1 mM MgCl2, pH 7.5, room temperature, 133 nM enzyme
T2 construct: gene PMM1; pET28a, His-tag cut with thrombin; E. coli BL21 Gold (DE3)
T2 sequence (Q92871 2-262): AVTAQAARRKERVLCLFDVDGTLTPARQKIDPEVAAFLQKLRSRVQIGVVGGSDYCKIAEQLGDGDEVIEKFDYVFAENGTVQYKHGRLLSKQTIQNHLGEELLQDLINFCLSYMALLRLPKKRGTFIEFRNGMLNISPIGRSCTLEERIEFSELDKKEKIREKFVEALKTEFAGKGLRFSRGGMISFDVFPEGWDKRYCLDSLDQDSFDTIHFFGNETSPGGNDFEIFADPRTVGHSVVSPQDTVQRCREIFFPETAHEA

HsPMM2 = target: T3, HsPMM2 (Homo sapiens, UniProt O15305); assay: coupled PGM assay (G6PDH, NADPH at […] nm); type: biochemical; conditions: 1 mM glucose 1-phosphate, 10 μM G-1,6-P, 1 mM MgCl2, pH 7.5, room temperature, 65 nM enzyme
T3 construct: gene PMM2; pET28a, His-tag cut with thrombin; E. coli BL21 Gold (DE3)
T3 sequence (O15305 2-246): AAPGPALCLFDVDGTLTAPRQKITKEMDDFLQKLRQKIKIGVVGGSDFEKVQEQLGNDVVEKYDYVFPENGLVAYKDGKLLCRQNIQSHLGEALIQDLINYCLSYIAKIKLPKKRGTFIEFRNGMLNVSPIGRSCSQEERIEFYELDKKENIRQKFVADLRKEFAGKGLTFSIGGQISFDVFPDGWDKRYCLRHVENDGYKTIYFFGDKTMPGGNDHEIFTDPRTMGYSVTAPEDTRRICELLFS

purified protein = substrate: O=P(O)(O)O[C@H]1O[C@H](CO)[C@@H](O)[C@H](O)[C@H]1O; assay: purified protein; conditions: G1P to G6P, 10 μM G-1,6-P, 0.75 mM NADP+, 25 mM Tris-HCl, 25 mM NaCl, 1 mM MgCl2, pH 7.5, room temperature

O=P(O)(O)OC[C@H]1O[C@H](OP(=O)(O)O)[C@H](O)[C@@H](O)[C@@H]1O [glucose-1,6-bisphosphate]
linked PMM assay, activation (HAD5 (PfHAD5)): upon addition of the known cofactor glucose-1,6-bisphosphate

O=P(O)(O)C[C@H]1O[C@H](CNO)[C@@H](O)[C@H](O)[C@H]1O [D9, compound D9]
IC50 (HsPMM1): 895 ± 66 µM | IC50 (HsPMM2): 413 ± 41 µM

B1: HAD5 (PfHAD5) (Plasmodium falciparum 3D7) (protein)
chain: T1 sequence (Q8IJM5 1-244)
Km (purified protein): 5.2 ± 1.4 µM | kcat (purified protein): 7.8e-06 ± 1.2e-06 s⁻¹ | kcat/Km (purified protein): 1.5 M⁻¹ s⁻¹
